Test results published in ChEMBL document CHEMBL5465560, “Selectivity Literature for EUbOPEN Chemogenomic Library” (2024).

How the values were obtained:
[1] = target: Phosphatidylinositol 4,5-bisphosphate 3-kinase catalytic subunit gamma isoform (Homo sapiens) (UniProt P48736); experiment: Selectivity interaction (KinomeScan (DiscoverX)) EUB0000695a PIK3CG; conditions: at 100 nM
[2] = target: T1, Tyrosine-protein kinase JAK3 (Homo sapiens) (UniProt P52333); experiment: Selectivity interaction (KinomeScan (DiscoverX)) EUB0000229b JAK3; conditions: at 10 µM
T1 sequence (whole entry): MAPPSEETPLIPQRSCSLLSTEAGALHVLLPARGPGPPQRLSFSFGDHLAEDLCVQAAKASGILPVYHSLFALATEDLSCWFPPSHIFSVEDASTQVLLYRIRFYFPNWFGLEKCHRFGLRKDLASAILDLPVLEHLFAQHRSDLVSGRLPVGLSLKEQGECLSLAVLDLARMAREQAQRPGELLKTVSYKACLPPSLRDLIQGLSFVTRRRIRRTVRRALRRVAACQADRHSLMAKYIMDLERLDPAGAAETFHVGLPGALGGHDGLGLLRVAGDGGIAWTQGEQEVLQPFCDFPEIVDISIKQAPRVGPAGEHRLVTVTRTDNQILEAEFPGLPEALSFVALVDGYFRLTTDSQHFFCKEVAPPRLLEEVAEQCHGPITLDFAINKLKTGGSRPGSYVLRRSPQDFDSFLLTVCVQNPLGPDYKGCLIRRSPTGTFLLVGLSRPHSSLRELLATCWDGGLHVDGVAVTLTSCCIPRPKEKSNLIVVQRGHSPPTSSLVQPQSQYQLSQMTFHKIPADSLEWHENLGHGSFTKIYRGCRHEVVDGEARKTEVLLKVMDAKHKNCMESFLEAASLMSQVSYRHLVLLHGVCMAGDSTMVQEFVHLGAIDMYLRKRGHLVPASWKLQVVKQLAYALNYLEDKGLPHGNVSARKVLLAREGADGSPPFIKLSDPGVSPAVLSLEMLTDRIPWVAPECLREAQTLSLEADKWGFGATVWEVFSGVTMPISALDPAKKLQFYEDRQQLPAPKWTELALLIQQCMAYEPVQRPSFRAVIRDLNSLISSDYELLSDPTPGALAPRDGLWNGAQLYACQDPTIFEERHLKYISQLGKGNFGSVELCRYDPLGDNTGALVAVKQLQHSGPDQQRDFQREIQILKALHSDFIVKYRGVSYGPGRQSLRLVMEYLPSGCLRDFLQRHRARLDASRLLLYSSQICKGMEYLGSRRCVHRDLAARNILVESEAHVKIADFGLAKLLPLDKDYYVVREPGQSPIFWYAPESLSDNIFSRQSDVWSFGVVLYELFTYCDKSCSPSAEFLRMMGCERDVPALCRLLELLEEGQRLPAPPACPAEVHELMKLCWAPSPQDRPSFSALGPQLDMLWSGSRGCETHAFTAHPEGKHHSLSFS

[3] = test system: Receptor-type tyrosine-protein kinase FLT3 (Homo sapiens), P36888 [UNDEFINED MUTATION]; experiment: Selectivity interaction (KinomeScan (DiscoverX)) EUB0001079a FLT3; conditions: at 1 µM
Chain of Receptor-type tyrosine-protein kinase FLT3 (Homo sapiens), P36888 [UNDEFINED MUTATION] (P36888 whole entry, looked up, change not shown): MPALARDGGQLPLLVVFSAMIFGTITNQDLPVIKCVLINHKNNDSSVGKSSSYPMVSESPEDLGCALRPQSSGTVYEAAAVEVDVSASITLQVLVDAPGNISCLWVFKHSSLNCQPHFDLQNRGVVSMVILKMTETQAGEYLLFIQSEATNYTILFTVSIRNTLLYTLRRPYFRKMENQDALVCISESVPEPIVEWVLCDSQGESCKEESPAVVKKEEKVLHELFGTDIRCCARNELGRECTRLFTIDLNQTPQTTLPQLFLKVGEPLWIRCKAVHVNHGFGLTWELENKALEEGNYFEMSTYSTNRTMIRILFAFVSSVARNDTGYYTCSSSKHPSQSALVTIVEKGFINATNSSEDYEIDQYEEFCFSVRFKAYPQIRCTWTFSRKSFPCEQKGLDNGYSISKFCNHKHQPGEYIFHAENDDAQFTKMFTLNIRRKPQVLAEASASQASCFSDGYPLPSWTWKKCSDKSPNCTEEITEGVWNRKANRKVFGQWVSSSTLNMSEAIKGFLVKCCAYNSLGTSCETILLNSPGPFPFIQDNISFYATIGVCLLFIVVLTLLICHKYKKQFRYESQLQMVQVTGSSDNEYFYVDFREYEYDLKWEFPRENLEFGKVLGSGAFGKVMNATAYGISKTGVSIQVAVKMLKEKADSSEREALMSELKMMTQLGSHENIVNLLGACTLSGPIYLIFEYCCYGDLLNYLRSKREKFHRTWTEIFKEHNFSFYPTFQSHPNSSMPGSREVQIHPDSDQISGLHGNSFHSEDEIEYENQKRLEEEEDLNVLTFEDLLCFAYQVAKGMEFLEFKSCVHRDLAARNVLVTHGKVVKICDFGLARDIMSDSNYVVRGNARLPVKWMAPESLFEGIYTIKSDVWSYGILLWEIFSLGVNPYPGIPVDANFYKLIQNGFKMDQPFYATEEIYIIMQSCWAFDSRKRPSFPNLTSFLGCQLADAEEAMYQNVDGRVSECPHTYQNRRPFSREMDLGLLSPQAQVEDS

[4] = target: T2, Serine/threonine-protein kinase DCLK3 (Homo sapiens) (UniProt Q9C098); experiment: Selectivity interaction (KinomeScan (DiscoverX)) EUB0000092b DCLK3; conditions: at 10 µM
T2 sequence (whole entry): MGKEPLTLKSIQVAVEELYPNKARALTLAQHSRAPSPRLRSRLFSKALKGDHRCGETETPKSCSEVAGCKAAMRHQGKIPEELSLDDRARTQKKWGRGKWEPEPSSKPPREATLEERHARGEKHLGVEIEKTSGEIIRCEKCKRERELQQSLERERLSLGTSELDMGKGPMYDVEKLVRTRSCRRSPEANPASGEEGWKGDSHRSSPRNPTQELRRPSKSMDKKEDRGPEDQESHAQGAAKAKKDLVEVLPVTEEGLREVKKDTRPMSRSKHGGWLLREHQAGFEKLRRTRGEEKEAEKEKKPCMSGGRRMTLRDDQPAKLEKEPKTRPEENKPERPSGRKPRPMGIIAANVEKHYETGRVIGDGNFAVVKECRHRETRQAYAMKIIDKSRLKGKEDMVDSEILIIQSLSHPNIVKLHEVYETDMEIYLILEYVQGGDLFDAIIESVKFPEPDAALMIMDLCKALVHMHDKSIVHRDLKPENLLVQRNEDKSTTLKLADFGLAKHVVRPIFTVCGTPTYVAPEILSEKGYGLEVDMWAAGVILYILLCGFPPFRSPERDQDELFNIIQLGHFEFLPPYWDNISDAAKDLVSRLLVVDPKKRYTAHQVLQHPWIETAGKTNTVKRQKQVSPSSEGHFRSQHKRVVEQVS

[5] = target: Casein kinase I isoform gamma-2 (Homo sapiens) (UniProt P78368); experiment: Selectivity interaction (KinomeScan (DiscoverX)) EUB0000045b CSNK1G2
Chain of Casein kinase I isoform gamma-2 (Homo sapiens) (P78368 whole entry, looked up, canonical isoform): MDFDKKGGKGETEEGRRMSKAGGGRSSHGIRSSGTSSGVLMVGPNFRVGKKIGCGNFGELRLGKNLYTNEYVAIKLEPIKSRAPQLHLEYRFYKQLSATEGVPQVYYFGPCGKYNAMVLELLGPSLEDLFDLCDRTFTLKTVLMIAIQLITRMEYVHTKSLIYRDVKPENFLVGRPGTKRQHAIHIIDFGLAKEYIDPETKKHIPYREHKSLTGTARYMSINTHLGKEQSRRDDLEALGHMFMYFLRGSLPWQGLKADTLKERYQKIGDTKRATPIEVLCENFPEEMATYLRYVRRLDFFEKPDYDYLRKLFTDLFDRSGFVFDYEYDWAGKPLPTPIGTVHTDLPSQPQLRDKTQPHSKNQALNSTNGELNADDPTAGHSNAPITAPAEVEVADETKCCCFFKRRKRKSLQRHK

[6] = target: T3, Tyrosine-protein kinase Mer (Homo sapiens) (UniProt Q12866); experiment: Selectivity interaction (Kinase panel (DSF assay)) EUB0001558a MERTK
T3 sequence (whole entry): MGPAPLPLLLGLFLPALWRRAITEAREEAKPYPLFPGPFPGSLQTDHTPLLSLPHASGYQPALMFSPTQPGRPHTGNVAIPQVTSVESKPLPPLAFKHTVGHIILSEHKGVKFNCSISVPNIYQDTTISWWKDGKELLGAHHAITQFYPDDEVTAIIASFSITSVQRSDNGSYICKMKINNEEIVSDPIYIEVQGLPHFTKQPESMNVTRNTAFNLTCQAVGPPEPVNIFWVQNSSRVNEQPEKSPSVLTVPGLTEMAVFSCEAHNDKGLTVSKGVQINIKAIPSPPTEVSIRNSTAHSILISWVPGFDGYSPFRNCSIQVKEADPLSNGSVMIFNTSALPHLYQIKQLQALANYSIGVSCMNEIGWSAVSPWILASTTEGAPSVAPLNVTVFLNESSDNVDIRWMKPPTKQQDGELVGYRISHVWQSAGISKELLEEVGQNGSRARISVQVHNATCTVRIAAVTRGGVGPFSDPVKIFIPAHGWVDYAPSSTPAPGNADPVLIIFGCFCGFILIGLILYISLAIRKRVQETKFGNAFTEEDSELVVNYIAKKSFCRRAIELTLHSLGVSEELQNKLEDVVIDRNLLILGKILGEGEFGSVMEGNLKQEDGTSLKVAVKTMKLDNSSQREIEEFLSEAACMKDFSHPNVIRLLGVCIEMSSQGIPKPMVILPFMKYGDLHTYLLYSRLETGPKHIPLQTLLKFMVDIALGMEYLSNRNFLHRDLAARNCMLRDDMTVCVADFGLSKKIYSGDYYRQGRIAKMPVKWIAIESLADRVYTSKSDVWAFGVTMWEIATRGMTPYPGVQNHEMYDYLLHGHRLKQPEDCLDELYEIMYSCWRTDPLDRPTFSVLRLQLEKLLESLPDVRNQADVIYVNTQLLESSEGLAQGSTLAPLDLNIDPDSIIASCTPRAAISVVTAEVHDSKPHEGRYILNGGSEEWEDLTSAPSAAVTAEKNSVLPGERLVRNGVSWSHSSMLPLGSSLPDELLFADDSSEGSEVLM

Chain of Phosphatidylinositol 4,5-bisphosphate 3-kinase catalytic subunit gamma isoform (Homo sapiens) (P48736 whole entry, looked up, canonical isoform): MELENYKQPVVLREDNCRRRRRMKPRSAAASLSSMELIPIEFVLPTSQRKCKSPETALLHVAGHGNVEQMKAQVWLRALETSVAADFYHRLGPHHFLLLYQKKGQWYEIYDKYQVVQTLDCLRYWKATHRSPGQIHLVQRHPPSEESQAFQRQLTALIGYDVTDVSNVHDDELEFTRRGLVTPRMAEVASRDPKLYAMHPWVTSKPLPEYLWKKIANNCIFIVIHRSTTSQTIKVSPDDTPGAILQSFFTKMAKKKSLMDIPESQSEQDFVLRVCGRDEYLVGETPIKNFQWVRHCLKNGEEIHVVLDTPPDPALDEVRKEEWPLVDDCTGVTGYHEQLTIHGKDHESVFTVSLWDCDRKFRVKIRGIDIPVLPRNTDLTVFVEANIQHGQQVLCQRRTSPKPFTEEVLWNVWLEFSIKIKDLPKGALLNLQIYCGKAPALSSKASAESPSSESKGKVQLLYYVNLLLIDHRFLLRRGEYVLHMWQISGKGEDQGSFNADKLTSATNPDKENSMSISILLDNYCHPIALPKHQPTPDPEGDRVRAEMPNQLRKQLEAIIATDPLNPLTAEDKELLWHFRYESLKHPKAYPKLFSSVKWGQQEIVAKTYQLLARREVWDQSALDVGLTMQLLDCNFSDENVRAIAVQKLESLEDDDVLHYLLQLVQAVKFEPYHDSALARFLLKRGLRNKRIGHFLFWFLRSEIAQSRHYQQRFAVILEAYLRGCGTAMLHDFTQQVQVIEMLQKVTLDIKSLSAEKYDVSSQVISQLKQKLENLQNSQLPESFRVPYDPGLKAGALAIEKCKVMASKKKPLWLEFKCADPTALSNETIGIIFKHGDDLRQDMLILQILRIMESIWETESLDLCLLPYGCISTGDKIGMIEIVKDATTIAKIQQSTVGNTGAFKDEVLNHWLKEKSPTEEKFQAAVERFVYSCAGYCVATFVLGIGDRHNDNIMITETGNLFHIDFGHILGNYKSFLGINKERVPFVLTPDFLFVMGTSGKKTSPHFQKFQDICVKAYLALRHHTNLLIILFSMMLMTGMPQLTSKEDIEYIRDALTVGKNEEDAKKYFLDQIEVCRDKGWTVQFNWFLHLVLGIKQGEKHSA

For `Cc1cc(F)c(C(=O)Nc2cccc(-c3nncn3C(C)C)n2)cc1-n1cnc(C2CC2)c1`, the % of control [1] was 100%.

With `COc1cc(N(C)c2ccnc3ccc(C(F)(F)F)cc23)cc(OC)c1OC` the % binding [2] was 99%.

`Nc1cnc(N2CCc3cc(S(=O)(=O)Nc4c(F)cc(Cl)cc4F)cc(N4CCCC4=O)c32)nc1` [TP-020n] showed a % of control [3] of 96%.

Compound `CCC(=O)N1CCN(c2ccc(-n3c(=O)ccc4cnc5ccc(-c6cnc7ccccc7c6)cc5c43)cc2C(F)(F)F)CC1` has a % of control [4] of 97%.

Compound `C=CC(=O)Nc1cc(-n2c(=O)ccc3cnc4ccc(-c5ccc(NS(C)(=O)=O)cc5)cc4c32)ccc1C` has a % of control ([5]; at 1 µM) of 100% and a % of control ([5]; at 10 µM) of 62%.

In the case of `CC(C)(O)[C@H](F)CN1Cc2cc(NC(=O)c3cnn4cccnc34)c(N3CCOCC3)cc2C1=O`, the dTM [6] is reported as 1.7 K.
